Reference: patent publication US10145851B2, “Discovery and validation of cancer biomarkers using a protein analysis methodology to analyze specimens” (The Board of Trustees of the Leland Stanford Junior …, priority 2009, dated 2018)
“Also recorded” adds a separate entry of the source. Where a name gives a salt, the structure may show the parent alone.

Assays:
K562 human CML cell line = assay: NIA of K562 CML cells treated with imatinib in vitro; assay type: cell-based; parameters: activated caspase-3 associated with apoptosis: dose or concentration left out as unconfirmed
Protocol: The NIA experiments were performed using a Firefly™ or CB1000™ instrument (Cell Biosciences). Briefly, for each capillary analysis, 4 nanoliters of 10 mg/ml lysate were diluted to 0.2 mg/ml in 200 nanoliters HNG-based lysis buffer [20 mM Hepes pH 7.5, 25 mM NaCl, 0.1%, 10% glycerol, Sigma Phosphatase Inhibitor Cocktail 1, Calbiochem Protease Inhibitor] or 200 nanoliters Bicine/CHAPS lysis buffer. 200 nanoliters sample mix containing internal pl standards were added. The Firefly system first performed a charge-based separation (isoelectric focusing) in a 5 cm long, 100 micron inner-diameter capillary. Predicted pl's were calculated using Scansite. Each sample was run on a panel of different pH gradients (3-10, 5-9) to optimize the resolution of different peak patterns. After separation and photo-activated in-capillary immobilization, proteins were detected with antibodies: MYC protein expression was detected using the C-19 rabbit polyclonal antibody that recognizes mouse and human MYC (Santa Cruz Biotechnology). BCL2 protein expression was detected using the clone 124 mouse monoclonal antibody that recognizes human BCL2 (Dako Laboratories). Total ERK1/2 protein expression was detected using a rabbit polyclonal antibody that recognizes mouse and human ERK1/2 (Upstate). Phospho-ERK 1/2 protein expression was detected using a mouse monoclonal antibody that recognizes both mouse and human pERK 1/2 (Cell Signaling). Additional antibodies used were: activated caspase 3 (Cell Signaling), MEK1 (Upstate), pMEK1 (Novus), MEK2 (Abcam), pSTAT3 (Cell Signaling), pSTAT5 (Cell Signaling), pJNK (Cell Signaling), HSP70 (Novus).
Quantitation of the peaks is performed using peak analysis software. The start and end of each peak, and a flat baseline were manually selected. The area of each peak was calculated by dropping verticals to the baseline at the peak start and end, and summing the area between the start and endpoints. […] The areas under different peaks within a single tracing represented various ERK isoforms. […]

[1] = tested on: human leukemic cell line TF1; assay: NIA of TF1 cells before and after treatment with ON01910; assay type: cell-based
Protocol: Using a single antibody that recognizes both the phosphorylated and unphosphorylated isoforms of ERK, we can determine levels of each ERK isoform, and also percent phosphorylation of ERK. […] To determine if NIA can measure signaling changes during treatment with novel drugs, human leukemic cells were treated with a PLK-1 inhibitor, ON01910 (Onconova, Inc). […] MEK2 phosphorylation decreased by 20% after ON01910 treatment. […] Treatment with ON01910 altered phosphorylation of signaling proteins in TF1 cells.

mouse model of lymphoma = conditions: associated with specific changes in oncoprotein signaling; cited from earlier work
[2] = tested on: phosphorylation of STAT3/5; assay: NIA/FACS of tumor cells of lymphoma patients treated with atorvastatin; assay type: in vivo, human
Excerpt: FIG. 5A-5C. NIA detected decrease in oncoproteins upon treatment with biologic response modifying therapeutic agent. (FIG. 5A) Schematic for the use of NIA to assess proteomic changes in clinical tumor specimens. Patients undergo pretreatment tumor sampling at baseline and again after 8 d of treatment with atorvastatin. (FIG. 5B) NIA analysis of tumor cells for changes in pSTAT3 and pSTAT5. (FIG. 5C) NIA quantification of pSTAT3 and pSTAT5±s.e.m. Samples were run in triplicate.
Predicted pl's were calculated using Scansite.
Phosphorylation of STAT3/5 decreased in lymphoma patients treated with atorvastatin. Tumor cells were sampled from lymphoma patients day 1 and day 8 of atorvastatin treatment.

[3] = TF1 cells after 24 hr of treatment

Q: For `Cc1ccc(NC(=O)c2ccc(CN3CCN(C)CC3)cc2)cc1Nc1nccc(-c2cccnc2)n1` [imatinib, imatinib mesylate], which “phosphorylation of STAT3/5, JNK, MEK1 and MEK2” value (K562 human CML cell line; K562, imatinib final concentration 10 mM in vitro, 0 h, 4 h and 20 h) is on record?
A: changes in phosphorylation

Q: And the “activated caspase-3 associated with apoptosis” value (K562 human CML cell line; K562, imatinib in vitro, 0 h, 4 h and 20 h)?
A: expected increase

Q: What about the “specific ERK2 phospho-isomer (peak 3)” value (K562 human CML cell line; K562, imatinib in vitro, 24 hours) of the same compound?
A: decrease; also recorded: change in phospho-ERK

Q: For `COc1cc(OC)c(/C=C/S(=O)(=O)Cc2ccc(OC)c(NCC(=O)O)c2)c(OC)c1` [ON01910], which MEK2 phosphorylation decrease ([1]; TF1 cell line after ON01910 treatment) is on record?
A: 20%

Q: What about the “phosphorylation of JNK” value [1, 3] of the same compound?
A: increased phosphorylation

Q: And the “phosphorylation of MEK2” value [1, 3]?
A: decreased phosphorylation

Q: Which results are given for `CC(C)c1c(C(=O)Nc2ccccc2)c(-c2ccccc2)c(-c2ccc(F)cc2)n1CC[C@@H](O)C[C@@H](O)CC(=O)O` [atorvastatin]?
A: tumor regression (mouse model of lymphoma): causes tumor regression; phosphorylation of STAT3/5 ([2]; after eight days of treatment, NIA): detectable decreases; also recorded: decreased; STAT3 and STAT5 phosphorylation in CD20 positive cells ([2]; day 1 and day 8 of treatment, NIA and FACS): dramatic decrease
